Data set [1] deals with dipeptidyl peptidase IV (DPP-IV). In words: human placental DPP-IV (Calbiochem), 0.125 mU, added to test peptide in PBS at pH 7.4. The note with it: 37° C., up to 24 hours.
In another data set the target is DPP-IV (Homo sapiens, UniProt P27487). In words: Assay for resistance to dipeptidyl peptidase IV (RP-HPLC of cleavage product). The conditions noted are these: human, isolated human placental DPP-IV (dipeptidyl peptidase IV), pH 7.4, % Cleaved by DPP-IV, as Example 3: human placental DPP-IV, 37° C., PBS pH 7.4.
A further data set relates to CD1 mice. In words: Intestinotrophic activity assessment: small bowel weight in mice. Type of data set: in vivo. The note with it: for % Activity (small bowel inducing activity relative to native rat GLP-2(1-33) = 100%): mice, as Example 4; for % Increase in small bowel weight: CD1 mice, 2.5 μg peptide s.c. b.i.d. in PBS, sacrificed 10 or 14 days, relative to vehicle only. Put shortly: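 Female CD1 mice, 6 weeks old (n=3-4/group), given 2.5 μg peptide s.c. b.i.d. in PBS; sacrificed 10 or 14 days later after ≥20 h fast. Small bowel (pylorus to cecum) weighed; percent change versus vehicle mice, also expressed relative to rat GLP-2(1-33) set as 100%.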

Non-standard residues stand in square brackets, D forms with d. No end group written: not given here. Phg = N[C@H](C(=O)O)c1ccccc1; Nva = CCC[C@H](N)C(=O)O; Aib = CC(C)(N)C(=O)O

Sequence of DPP-IV (P27487 whole entry): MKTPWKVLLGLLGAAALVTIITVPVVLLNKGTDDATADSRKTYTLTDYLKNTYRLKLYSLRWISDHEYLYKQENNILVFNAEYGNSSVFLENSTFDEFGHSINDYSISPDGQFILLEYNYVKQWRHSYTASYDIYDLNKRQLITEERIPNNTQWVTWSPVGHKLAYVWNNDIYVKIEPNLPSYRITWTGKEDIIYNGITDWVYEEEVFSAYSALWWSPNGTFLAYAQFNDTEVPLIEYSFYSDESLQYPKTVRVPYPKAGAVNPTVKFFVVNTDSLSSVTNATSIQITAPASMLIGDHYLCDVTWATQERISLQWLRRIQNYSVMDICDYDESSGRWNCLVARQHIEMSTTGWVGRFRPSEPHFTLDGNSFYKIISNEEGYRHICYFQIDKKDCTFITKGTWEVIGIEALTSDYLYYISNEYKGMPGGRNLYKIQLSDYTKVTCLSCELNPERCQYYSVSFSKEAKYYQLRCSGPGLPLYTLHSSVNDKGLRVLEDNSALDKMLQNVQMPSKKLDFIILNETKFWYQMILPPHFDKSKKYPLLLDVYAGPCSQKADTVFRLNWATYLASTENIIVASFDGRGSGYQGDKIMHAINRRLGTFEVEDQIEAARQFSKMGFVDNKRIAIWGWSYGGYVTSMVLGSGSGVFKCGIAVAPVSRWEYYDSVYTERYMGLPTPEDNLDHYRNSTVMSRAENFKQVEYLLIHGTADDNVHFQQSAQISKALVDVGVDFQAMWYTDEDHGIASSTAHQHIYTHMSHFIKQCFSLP

Consider “Ac-ratGLP-2(1-33) (Ac-HADGSFSDEMNTILDNLATRDFINWLIQTKITD-OH)”, for which the not cleaved in data set [1] amounted to 0% cleaved by DPP-IV.

“H-HTDGSFSDEMNTILDNLAARDFINWLIQTKITD-OH [[Thr2]hGLP-2(1-33)]” showed a metabolised at 24 h, 0.19 mg/ml on DPP-IV of 0%. In addition, the “% Activity (small bowel inducing activity relative to native rat GLP-2(1-33) = 100%)” value with CD1 mice was 117%.

On DPP-IV, “H-HVDGSFSDEMNTILDNLAARDFINWLIQTKITD-OH [[Val2]hGLP-2(1-33)]” showed a metabolised at 24 h, 0.19 mg/ml of 13%. Besides, in the data set on CD1 mice, the “% Activity (small bowel inducing activity relative to native rat GLP-2(1-33) = 100%)” value is reported as 180%.

“H-HYDGSFSDEMNTILDNLAARDFINWLIQTKITD-OH [[Tyr2]hGLP-2(1-33)]” showed a metabolised at 24 h, 0.19 mg/ml at DPP-IV of 0%. The “% Activity (small bowel inducing activity relative to native rat GLP-2(1-33) = 100%)” value in the data set on CD1 mice amounted to 57%.

“H-PADGSFSDEMNTILDNLAARDFINWLIQTKITD-OH [[Pro1]hGLP-2(1-33)]” showed a metabolised at 24 h, 0.19 mg/ml at DPP-IV of 0%. Further, the “% Activity (small bowel inducing activity relative to native rat GLP-2(1-33) = 100%)” value with CD1 mice is 12%.

Turning to “H-RHADGSFSDEMNTILDNLATRDFINWLIQTKITD-OH [[Arg-l]ratGLP-2(-1-33)]”, the metabolised at 24 h, 0.19 mg/ml at DPP-IV worked out at 0%. Further, the “% Activity (small bowel inducing activity relative to native rat GLP-2(1-33) = 100%)” value with CD1 mice is listed as 11%.

The substance “H-YADGSFSDEMNTILDNLATRDFINWLIQTKITD-OH [[Tyr1]ratGLP-2(1-33)]” gave a metabolised at 24 h, 0.19 mg/ml at DPP-IV of 100%. Moreover, in the data set on CD1 mice, the “% Increase in small bowel weight” value stood at 37% and the “% Activity (small bowel inducing activity relative to native rat GLP-2(1-33) = 100%)” value came to 81%.

“H-YGDGSFSDEMNTILDNLAARDFINWLIQTKITD-OH [[Tyr1, Gly2]hGLP-2(1-33)]” came in with a metabolised at 24 h, 0.19 mg/ml at DPP-IV of 0%. Besides, in the data set with CD1 mice, the “% Activity (small bowel inducing activity relative to native rat GLP-2(1-33) = 100%)” value is 241%.

As for “HVDGSFSDEMNTILDNLATRDFINWLIQTKITD [[Val2]GLP-2(1-33)]”, the metabolised at 24 h, 0.19 mg/ml at DPP-IV was 0%. In addition, in the data set on CD1 mice, the “% Increase in small bowel weight” value is 65% and the “% Activity (small bowel inducing activity relative to native rat GLP-2(1-33) = 100%)” value is reported as 145%.

In turn, “[Aib2]hGLP-2(1-33) (H-H[Aib]DGSFSDEMNTILDNLAARDFINWLIQTKITD-OH; SMILES CC[C@H](C)[C@H](NC(=O)[C@H](Cc1ccccc1)NC(=O)[C@H](CC(=O)O)NC(=O)[C@H](CCCNC(=N)N)NC(=O)[C@H](C)NC(=O)[C@H](C)NC(=O)[C@H](CC(C)C)NC(=O)[C@H](CC(N)=O)NC(=O)[C@H](CC(=O)O)NC(=O)[C@H](CC(C)C)NC(=O)[C@@H](NC(=O)[C@@H](NC(=O)[C@H](CC(N)=O)NC(=O)[C@H](CCSC)NC(=O)[C@H](CCC(=O)O)NC(=O)[C@H](CC(=O)O)NC(=O)[C@H](CO)NC(=O)[C@H](Cc1ccccc1)NC(=O)[C@H](CO)NC(=O)CNC(=O)[C@H](CC(=O)O)NC(=O)C(C)(C)NC(=O)[C@@H](N)Cc1c[nH]cn1)[C@@H](C)O)[C@@H](C)CC)C(=O)N[C@@H](CC(N)=O)C(=O)N[C@@H](Cc1c[nH]c2ccccc12)C(=O)N[C@@H](CC(C)C)C(=O)N[C@H](C(=O)N[C@@H](CCC(N)=O)C(=O)N[C@H](C(=O)N[C@@H](CCCCN)C(=O)N[C@H](C(=O)N[C@H](C(=O)N[C@@H](CC(=O)O)C(=O)O)[C@@H](C)O)[C@@H](C)CC)[C@@H](C)O)[C@@H](C)CC)” registered a not cleaved in data set [1] of 0% cleaved by DPP-IV.

The substance “[Ala1,Gly2]hGLP-2(1-33) (H-AGDGSFSDEMNTILDNLAARDFINWLIQTKITD-OH)” gave a not cleaved in data set [1] of 0% cleaved by DPP-IV.

Substance [Arg-2,Arg-1]ratGLP-2(2-33) yielded a not cleaved in data set [1] of 0% cleaved by DPP-IV.

For “[Arg-l]ratGLP-2(-1-33) (H-RHADGSFSDEMNTILDNLATRDFINWLIQTKITD-OH)”, the not cleaved in data set [1] was 0% cleaved by DPP-IV.

The substance “[Asn2]hGLP-2(1-33) (H-HNDGSFSDEMNTILDNLAARDFINWLIQTKITD-OH)” came in with a not cleaved in data set [1] of 0% cleaved by DPP-IV.

“[Asp1]hGLP-2(1-33) (H-DADGSFSDEMNTILDNLAARDFINWLIQTKITD-OH)” returned a not cleaved in data set [1] of 0% cleaved by DPP-IV.

In data set [1], “[Asp2]hGLP-2(1-33) (H-HDDGSFSDEMNTILDNLAARDFINWLIQTKITD-OH)” came in with a not cleaved of 0% cleaved by DPP-IV.

The substance [D-Ala2]hGLP-2(1-33) displayed a not cleaved in data set [1] of 0% cleaved by DPP-IV.

The substance “[Gln2]hGLP-2(1-33) (H-HQDGSFSDEMNTILDNLAARDFINWLIQTKITD-OH)” displayed a not cleaved in data set [1] of 0% cleaved by DPP-IV.

With “[Glu2]hGLP-2(1-33) (H-HEDGSFSDEMNTILDNLAARDFINWLIQTKITD-OH)”, the not cleaved in data set [1] worked out at 0% cleaved by DPP-IV.

The substance [Gly2, Arg34]hGLP-2(1-34) showed a not cleaved in data set [1] of 0% cleaved by DPP-IV.

[Gly2, Tyr34]hGLP-2(1-34) displayed a not cleaved in data set [1] of 0% cleaved by DPP-IV.

In data set [1], “[Gly2,Ala3]hGLP-2(1-33) (H-HGAGSFSDEMNTILDNLAARDFINWLIQTKITD-OH)” yielded a not cleaved of 0% cleaved by DPP-IV.

In the case of “[Gly2,Ala4]hGLP-2(1-33) (H-HGDASFSDEMNTILDNLAARDFINWLIQTKITD-OH)”, the not cleaved in data set [1] is on record as 0% cleaved by DPP-IV.

“[Gly2,Ala5]hGLP-2(1-33) (H-HGDGAFSDEMNTILDNLAARDFINWLIQTKITD-OH)”: in data set [1], the not cleaved was 0% cleaved by DPP-IV.

Consider “[Gly2,Ala24]hGLP-2(1-33) (H-HGDGSFSDEMNTILDNLAARDFIAWLIQTKITD-OH)”, for which the not cleaved in data set [1] turned out to be 0% cleaved by DPP-IV.

[Gly2]hGLP-2(1-33) had a not cleaved in data set [1] of 0% cleaved by DPP-IV.

As for “[His2]hGLP-2(1-33) (H-HHDGSFSDEMNTILDNLAARDFINWLIQTKITD-OH)”, the not cleaved in data set [1] turned out to be 0% cleaved by DPP-IV.

As to “[Ile2]hGLP-2(1-33) (H-HIDGSFSDEMNTILDNLAARDFINWLIQTKITD-OH)”, the not cleaved in data set [1] was 0% cleaved by DPP-IV.

With “[Lys2]hGLP-2(1-33) (H-HKDGSFSDEMNTILDNLAARDFINWLIQTKITD-OH)”, the not cleaved in data set [1] is 0% cleaved by DPP-IV.

On to “[Met2]hGLP-2(1-33) (H-HMDGSFSDEMNTILDNLAARDFINWLIQTKITD-OH)”, for which the not cleaved in data set [1] amounted to 0% cleaved by DPP-IV.

On to “[Nval2]hGLP-2(1-33) (H-H[Nva]DGSFSDEMNTILDNLAARDFINWLIQTKITD-OH; SMILES CCC[C@H](NC(=O)[C@@H](N)Cc1c[nH]cn1)C(=O)N[C@@H](CC(=O)O)C(=O)NCC(=O)N[C@@H](CO)C(=O)N[C@@H](Cc1ccccc1)C(=O)N[C@@H](CO)C(=O)N[C@@H](CC(=O)O)C(=O)N[C@@H](CCC(=O)O)C(=O)N[C@@H](CCSC)C(=O)N[C@@H](CC(N)=O)C(=O)N[C@H](C(=O)N[C@H](C(=O)N[C@@H](CC(C)C)C(=O)N[C@@H](CC(=O)O)C(=O)N[C@@H](CC(N)=O)C(=O)N[C@@H](CC(C)C)C(=O)N[C@@H](C)C(=O)N[C@@H](C)C(=O)N[C@@H](CCCNC(=N)N)C(=O)N[C@@H](CC(=O)O)C(=O)N[C@@H](Cc1ccccc1)C(=O)N[C@H](C(=O)N[C@@H](CC(N)=O)C(=O)N[C@@H](Cc1c[nH]c2ccccc12)C(=O)N[C@@H](CC(C)C)C(=O)N[C@H](C(=O)N[C@@H](CCC(N)=O)C(=O)N[C@H](C(=O)N[C@@H](CCCCN)C(=O)N[C@H](C(=O)N[C@H](C(=O)N[C@@H](CC(=O)O)C(=O)O)[C@@H](C)O)[C@@H](C)CC)[C@@H](C)O)[C@@H](C)CC)[C@@H](C)CC)[C@@H](C)CC)[C@@H](C)O)”, for which the not cleaved in data set [1] turned out to be 0% cleaved by DPP-IV.

In turn, “[PhGly2]hGLP-2(1-33) (H-H[Phg]DGSFSDEMNTILDNLAARDFINWLIQTKITD-OH; SMILES CC[C@H](C)[C@H](NC(=O)[C@H](Cc1ccccc1)NC(=O)[C@H](CC(=O)O)NC(=O)[C@H](CCCNC(=N)N)NC(=O)[C@H](C)NC(=O)[C@H](C)NC(=O)[C@H](CC(C)C)NC(=O)[C@H](CC(N)=O)NC(=O)[C@H](CC(=O)O)NC(=O)[C@H](CC(C)C)NC(=O)[C@@H](NC(=O)[C@@H](NC(=O)[C@H](CC(N)=O)NC(=O)[C@H](CCSC)NC(=O)[C@H](CCC(=O)O)NC(=O)[C@H](CC(=O)O)NC(=O)[C@H](CO)NC(=O)[C@H](Cc1ccccc1)NC(=O)[C@H](CO)NC(=O)CNC(=O)[C@H](CC(=O)O)NC(=O)[C@@H](NC(=O)[C@@H](N)Cc1c[nH]cn1)c1ccccc1)[C@@H](C)O)[C@@H](C)CC)C(=O)N[C@@H](CC(N)=O)C(=O)N[C@@H](Cc1c[nH]c2ccccc12)C(=O)N[C@@H](CC(C)C)C(=O)N[C@H](C(=O)N[C@@H](CCC(N)=O)C(=O)N[C@H](C(=O)N[C@@H](CCCCN)C(=O)N[C@H](C(=O)N[C@H](C(=O)N[C@@H](CC(=O)O)C(=O)O)[C@@H](C)O)[C@@H](C)CC)[C@@H](C)O)[C@@H](C)CC)” returned a not cleaved in data set [1] of 0% cleaved by DPP-IV.

With “[Phe2]hGLP-2(1-33) (H-HFDGSFSDEMNTILDNLAARDFINWLIQTKITD-OH)”, in data set [1], the not cleaved was determined as 0% cleaved by DPP-IV.

Substance “[Pro1]hGLP-2(1-33) (H-PADGSFSDEMNTILDNLAARDFINWLIQTKITD-OH)” registered a not cleaved in data set [1] of 0% cleaved by DPP-IV.

In data set [1], “[Pro3]hGLP-2(1-33) (H-HAPGSFSDEMNTILDNLAARDFINWLIQTKITD-OH)” had a not cleaved of 0% cleaved by DPP-IV.

On to “[Ser2]hGLP-2(1-33) (H-HSDGSFSDEMNTILDNLAARDFINWLIQTKITD-OH)”, for which the not cleaved in data set [1] is reported as 0% cleaved by DPP-IV.

“[Thr2]hGLP-2(1-33) (H-HTDGSFSDEMNTILDNLAARDFINWLIQTKITD-OH)” gave a not cleaved in data set [1] of 0% cleaved by DPP-IV.

As for “[Thr^19]hGLP-2(1-33) (H-HADGSFSDEMNTILDNLATRDFINWLIQTKITD-OH)”, in data set [1], the cleaved bond result was “Ala2-Asp3, 24 hours”.

Regarding “[Tyr1, Gly2]hGLP-2(1-33) (H-YGDGSFSDEMNTILDNLAARDFINWLIQTKITD-OH)”, in data set [1], the not cleaved is 0% cleaved by DPP-IV.

“[Tyr2]hGLP-2(1-33) (H-HYDGSFSDEMNTILDNLAARDFINWLIQTKITD-OH)” registered a not cleaved in data set [1] of 0% cleaved by DPP-IV.

Regarding [Val2]GLP-2(1-33), the not cleaved in data set [1] came out at 0% cleaved by DPP-IV.
